Assays:
[1] = system: pDCs after TLR9 activation; experiment: Cytokine and chemokine secretion by pDCs after TLR9 activation (ELISA of supernatants); type: cell-based, human; conditions: 0.5µM of ATO, 24h, n=4
Experimental: (§1) pDCs were isolated from fresh peripheral blood mononuclear cells (PBMCs) by magnetic selection. Cell viability, phenotype and intracellular cytokine analyses were performed with flow cytometry. ELISA was used to analyze the cytokine concentration in supernatants.
Then, the effect of low dose ATO (corresponding to a non-lethal, therapeutic dose) on cytokine and chemokine secretion by pDCs after TLR9 activation was studied. ELISA test of supernatants of sorted pDCs cultured with ATO for 24h were studied (n=4).

human pDCs = experiment: Viability of human pDCs (Fixable Viability Dye, flow cytometry); type: cell-based; conditions: 24h of culture
Experimental: as §1
First, the effect of ATO on the viability of human pDCs was investigated. […] (% of living pDCs: 56.36±6.44% with 0µM vs 32.02±7.12% with 1µM of ATO, p=0.039)

naïve CD4+ T cells = experiment: pDC capacity to polarize naïve CD4+ T cells (intracellular staining and ELISA of MLR supernatants); type: cell-based, human; conditions: pDCs previously treated with ATO
Experimental: as §1
In addition, the effect of ATO treatment on pDC capacity to polarize naïve CD4+ T cells was assessed.

[2] = system: CD4+ naïve T cells co-cultured with ATO-treated activated pDCs; experiment: Mixed lymphocyte reaction (MLR) of pDCs and CD4+ naïve T cells: T cell proliferation; type: cell-based, human; conditions: pDCs treated with 0.5µM of ATO, n=4; 0µM control 44.97±2.53%
Experimental: as §1
In order to evaluate whether ATO can influence the capability of pDCs to activate T cells, mixed lymphocyte reaction (MLR) of pDCs and CD4+ naïve T cells were performed.

activated pDCs = experiment: Phenotype of activated pDCs (flow cytometry of maturation markers); type: cell-based, human
Experimental: as §1
Given the above results, it was addressed whether activated pDCs phenotype could be similarly impacted by ATO treatment.

[3] = 24h culture with non-lethal doses of ATO

arsenic trioxide [ATO]
IL-6 secretion ([1]; 0µM control 2.31 ±0.39ng/ml, p=0.029): 1.66 ± 0.32 ng/mL | TNF-α secretion ([1]; 0µM control 6.23±0.92ng/ml, p=0.005): 3.99 ± 0.79 ng/mL | CXCL10 secretion ([1]; 0µM control 13.06±0.98ng/ml, p=0.036): 9.44 ± 0.97 ng/mL | IFN-α secretion ([1]; 0µM control 53.24±6.61ng/ml, p=0.004): 25.81 ± 7.70 ng/mL | % of living pDCs (human pDCs; 1µM of ATO, 0µM control 56.36±6.44%, p=0.039): 32.02±7.12% | ATO concentration that significantly decreased viability of both non-activated and activated pDCs (human pDCs): ≥ 1 µM | IL-10 concentration in the supernatants of MLR (naïve CD4+ T cells; ELISA): no change | IL-17, IL-22 concentrations in the supernatants of MLR (naïve CD4+ T cells; ELISA): significant decrease | IL-22 positive cells in T cells (naïve CD4+ T cells; intracellular staining, untreated 11.67%): 7.22% | IFN-γ positive cells in T cells (naïve CD4+ T cells; intracellular staining, untreated 41.13%): 29.09% | TNF-α positive cells in T cells (naïve CD4+ T cells; intracellular staining, untreated 47.10%): 35.40% | % of proliferating T cells [2]: 37.98±2.11% | PD-L1+ pDCs (activated pDCs; 0.5µM of ATO, 24h, n=4, 0µM control 61.44±2.37%, p=0.005): 73.27 ±3.72% | % of CD86+ and CCR7+ pDCs (activated pDCs; [3]): significant decrease | relative fluorescence intensity (RFI) of CD80, CD86, and HLA-DR expressions (activated pDCs; [3]): significant decrease | RFI for PD-L1 expression (activated pDCs; 24h culture with non-lethal doses of ATO, p=0.09): increase
